Reference: patent US20060004207A1, “Preparation of new pharmaceutically suitable salt of losartan and forms thereof with new purification and isolation methods” (priority 2003, published 2006)
Read-outs that look alike come from different tables or passages of the source. Each block holds one molecule with its values, some of them ahead of it.

Experiments:
[1] = Rate of dissolution of the substance, 75 mg in 50 ml 0.1 M HCl; format: physicochemical
[2] = Solubility of crystalline forms of losartan potassium
[3] = for Loss of weight: ~10 mBar
Method: The sample was exposed to temperatures between 60° C. and 80° C. and negative pressure ˜10 mBar.

[4] = Dynamic vapour sorption (DVS); format: physicochemical
Method: Measurements were performed on instrument DVS—The Sorption Solution, Surface Measurement Systems Ltd. UK.
The principle of measurement is as follows: The sample measured is placed on one side of a very precise scale, a reference non-hydroscopic sample having been placed on the other side. The scale is located in an isolated chamber in which the relative humidity can be set. The hydroscopic sample being measured binds moisture from the environment, and an increase of mass is detected.
The ordinate axis represents the change of mass, abscise representing the humidity.

[5] = Stability test, amorphous versus form with bound water, 4 days in air at 60/80° C., dry or moist; format: physicochemical; details: for Physical form when exposed to moisture: 4 days
Method: For evaluation and comparison, respectively, of the stability, four tests were conducted.

[6] = 10 g exposed to heat while dried
Method: Temperature stability of the sample of polymorph Form Y was tested by exposing 10 g polymorph Form Y potassium salt of -n-butyl-4-chloro-5-hydroxymethyl-1-[[2′-(1H-tetrazol-5-yl)[1,1′-biphenyl]-4-yl]methyl]-1H-imidazole to heat while dried.

- RATE OF DISSOLUTION [1]: 16 min
- solubility ([2]; 0.1 M HCl, simulated gastric fluid): 1.52 mg/mL
- solubility ([2]; water): 630 mg/mL
Compound: CCCCc1nc(Cl)c(CO)n1Cc1ccc(-c2ccccc2-c2nn[nH]n2)cc1 [Form I, losartan potassium, reference compound]

Compound: CCCCc1nc(Cl)c(CO)n1Cc1ccc(-c2ccccc2-c2nnn[n-]2)cc1.[K+] [LST-K-1481, potassium salt of 2-n-butyl-4-chloro-5-hydroxymethyl-1-[[2′-(1H-tetrazol-5-yl)[1,1′-biphenyl]-4-yl]methyl]-1H-imidazole]
- RATE OF DISSOLUTION [1]: 14 min
- SOLUBILITY in 0.1 M HCl ([2]; in 0.1 M HCl): 1.74 mg/mL

Compound: CCCCc1nc(Cl)c(CO)n1Cc1ccc(-c2ccccc2-c2nnn[n-]2)cc1.[K+] [LST-K-1496/1, potassium salt of 2-n-butyl-4-chloro-5-hydroxymethyl-1-[[2′-(1H-tetrazol-5-yl)[1,1′-biphenyl]-4-yl]methyl]-1H-imidazole]
- RATE OF DISSOLUTION [1]: 13 min

Compound: CCCCc1nc(Cl)c(CO)n1Cc1ccc(-c2ccccc2-c2nnn[n-]2)cc1.[K+] [LST-K-3279, potassium salt of 2-n-butyl-4-chloro-5-hydroxymethyl-1-[[2′-(1H-tetrazol-5-yl)[1,1′-biphenyl]-4-yl]methyl]-1H-imidazole]
- Polymorphic form after storage ([3]; 45-day storage in a closed flask at room temperature): did not change its polymorphic forms
- Loss of weight ([3]; 60° C.): 0.79%
- Loss of weight ([3]; 80° C.): 0.90%
- Crystalline structure after heat and negative pressure ([3]; between 60° C. and 80° C., negative pressure ~10 mBar): did not change under any of the conditions

- RATE OF DISSOLUTION [1]: 8 min
Compound: CCCCc1nc(Cl)c(CO)n1Cc1ccc(-c2ccccc2-c2nn[nH]n2)cc1 [Milled sample of Form I, losartan potassium, reference compound]

- Water content at repeated sorption, at which point the amorphous sample crystallizes ([4]; at 60% relative humidity): approximately 13%
- Weight increase ([4]; at 70-80% relative humidity): 20-26%
- Absorption of water (increase of mass) ([4]; at 80% relative humidity, first sorption): 25%
Compound: CCCCc1nc(Cl)c(CO)n1Cc1ccc(-c2ccccc2-c2nn[nH]n2)cc1 [amorphous losartan potassium, losartan potassium]
- Hygroscopicity (comparison) [5]: essentially more hygroscopic than the form with bound water of losartan potassium
- Physical form when exposed to moisture [5]: merged into a glassy mass and then white crystals of form with bound water were formed

Compound: CCCCc1nc(Cl)c(CO)n1Cc1ccc(-c2ccccc2-c2nnn[n-]2)cc1.[K+] [crystalline form with bound water, losartan potassium]
- Content of water in sample after crystallization ([4]; after crystallization at 80% relative humidity): approximately 13%
- Relative humidity at which bound water is lost and the sample transforms into amorphous form ([4]; decreasing relative humidity): below 20%
- Solubility (comparison in words) ([2]; in water): less soluble than known Form I, or amorphous losartan potassium
- Stability to temperature and moisture ([5]; 4 days in air, 60° C. or 80° C., dry atmosphere or moisture): at least as stable as amorphous
- Physical form when exposed to moisture [5]: maintained the powdered form

Compound: CCCCc1nc(Cl)c(CO)n1Cc1ccc(-c2ccccc2-c2nnn[n-]2)cc1.[K+] [polymorph Form Y, potassium salt of 2-n-butyl-4-chloro-5-hydroxymethyl-1-[[2′-(1H-tetrazol-5-yl)[1.1′-biphenyl]-4-yl]methyl]-1H-imidazole]
- Polymorph form after exposure to heat while dried [6]: Polymorph Form X was obtained
